Test results from patent US20220324835A1 (Nurix Therapeutics, Inc., priority 2018, published 2022).

The molecules below were run against Cbl-b (Homo sapiens, UniProt Q13191) (assay: Cbl-b activity assay (Cbl-b inhibition assay), TR-FRET of Cbl-b interaction with UbcH5B-Ub). Settings: * assay buffer containing 50 mM NaCl instead of 100 mM NaCl and 30 nM Src kinase instead of 60 nM; read-out: Cbl-b activity IC50 (μM)*.
Format: biochemical
Protocol: The ability of candidate compounds to inhibit Cbl-b activity was measured by monitoring the interaction of Cbl-b with UbcH5B-Ub in the presence of the candidate compound.
Fluorescently labeled UbcH5B-Ub was prepared by conjugating ubiquitin (Ub), labeled at its N-terminus with Bodipy-Fluorescein, to UbcH5B, an E2 enzyme, harboring a cysteine to lysine mutation at position 85. […] After incubation in the presence of the candidate compound, the plate was incubated for an additional 1.5 hours in the presence of 60 nM Src kinase with 1 mM ATP and 5 mM MgCl2 (final concentrations). […] The plate was incubated for 1 hour.
Column marked with an asterisk (*) were tested as described above with assay buffer containing 50 mM NaCl instead of 100 mM NaCl and 30 nM Src kinase instead of 60 nM Src kinase. The resulting data for the Cbl-b binding assay was solvent corrected and double referenced prior to analysis. All data were globally fit to a steady-state affinity and kinetic binding model where applicable). Fit parameters were derived from a 1:1 binding model using the Biacore T200 Evaluation Software V2.0 (GE Healthcare) (Table 2).

Chain of Cbl-b (Q13191 36-427): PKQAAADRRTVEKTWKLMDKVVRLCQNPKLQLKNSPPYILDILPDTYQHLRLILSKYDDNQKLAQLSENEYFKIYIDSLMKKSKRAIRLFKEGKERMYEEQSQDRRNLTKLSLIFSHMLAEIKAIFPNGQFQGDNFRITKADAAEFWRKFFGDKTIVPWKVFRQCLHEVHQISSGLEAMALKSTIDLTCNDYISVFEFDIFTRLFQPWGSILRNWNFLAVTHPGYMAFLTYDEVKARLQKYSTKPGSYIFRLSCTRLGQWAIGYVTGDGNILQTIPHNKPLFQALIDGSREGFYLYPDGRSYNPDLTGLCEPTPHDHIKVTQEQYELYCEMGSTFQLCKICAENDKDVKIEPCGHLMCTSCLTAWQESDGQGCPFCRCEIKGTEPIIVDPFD

Row | SMILES | IC50 [µM]
1 | CC(Sc1nncn1C)c1cccc(N2Cc3ccccc3C2=O)c1 (centres unmarked) [Compound 162, 2-[3-[1-[(4-methyl-1,2,4-triazol-3-yl)sulfanyl]ethyl]phenyl]isoindolin-1-one] | 3 to 10
2 | CC(Sc1nccn1C)c1ccc(F)c(NC(=O)c2cccc(C(F)(F)F)n2)c1 (centres unmarked) [Compound 101, N-[2-fluoro-5-[1-(1-methylimidazol-2-yl)sulfanylethyl]phenyl]-6-(trifluoro-methyl)pyridine-2-carboxamide] | 3 to 10
3 | CC(Sc1nncn1C)c1cc(CO)cc(NC(=O)c2ccc3ccccc3n2)c1 (centres unmarked) [Compound 132, N-(3-(hydroxymethyl)-5-(1-(4-methyl-4H-1,2,4-triazol-3-ylthio)ethyl)phenyl)quinoline-2-carboxamide] | > 10
4 | CC(Sc1nncn1C)c1ccnc(N2Cc3ccccc3C2=O)c1 (centres unmarked) [Compound 171, 2-(4-(1-((4-methyl-4H-1,2,4-triazol-3-yl)thio)ethyl)pyridin-2-yl)isoindolin-1-one] | 3 to 10
5 | Cc1cc(C(=O)Nc2cccc([C@H](C)Sc3nncn3C)c2)ccc1Cl [Compound 28, (S)-4-Chloro-3-methyl-N-(3-(1-((4-methyl-4H-1,2,4-triazol-3-yl)thio)ethyl)phenyl)benzamide] | 1 to 3
6 | CC(Sc1nncn1C)c1cccc(NC(=O)c2ccc3cccnc3n2)c1 (centres unmarked) [Compound 18, N-(3-(1-((4-Methyl-4H-1,2,4-triazol-3-yl)thio)ethyl)phenyl)-1,8-naphthyridine-2-carboxamide] | 3 to 10
7 | Cc1ccc(C(=O)Nc2cccc([C@H](C)Sc3nncn3C)c2)cc1C [Compound 27, (S)-3,4-Dimethyl-N-(3-(1-((4-methyl-4H-1,2,4-triazol-3-yl)thio)ethyl)phenyl)benzamide] | 3 to 10
8 | CC(Sc1nncn1C)c1cccc(NC(=O)c2cc3c(cn2)CCCC3)c1 (centres unmarked) [Compound 24, N-(3-(1-((4-Methyl-4H-1,2,4-triazol-3-yl)thio)ethyl)phenyl)-5,6,7,8-tetrahydroisoquinoline-3-carboxamide] | 3 to 10
9 | Cc1ccc2cc(C(=O)Nc3cccc(C(C)Sc4nncn4C)c3)cnc2c1 (centres unmarked) [Compound 15, 7-Methyl-N-(3-(1-(4-methyl-4H-1,2,4-triazol-3-ylthio)ethyl)phenyl)quinoline-3-carboxamide] | > 10
10 | CC(Sc1nncn1C)c1cccc(NC(=O)c2cc3ccncc3cn2)c1 (centres unmarked) [Compound 19, N-(3-(1-((4-Methyl-4H-1,2,4-triazol-3-yl)thio)ethyl)phenyl)-2,7-naphthyridine-3-carboxamide] | 3 to 10
11 | CC(Sc1nncn1C)c1cccc(NC(=O)c2cc3ccccc3c(=O)[nH]2)c1 (centres unmarked) [Compound 22, N-(3-(1-((4-Methyl-4H-1,2,4-triazol-3-yl)thio)ethyl)phenyl)-1-oxo-1,2-dihydroisoquinoline-3-carboxamide] | > 10
12 | CC(Sc1nncn1C)c1cccc(NC(=O)c2ccc3ccc(Cl)cc3n2)c1 (centres unmarked) [Compound 16, 7-Chloro-N-(3-(1-((4-methyl-4H-1,2,4-triazol-3-yl)thio)ethyl)phenyl)quinoline-2-carboxamide] | 3 to 10
13 | C[C@@H](Sc1nncn1C)c1ccnc(NC(=O)c2cccc(C(F)(F)F)n2)c1 [Compound 102a, (R)-N-(4-(1-((4-methyl-4H-1,2,4-triazol-3-yl)thio)ethyl)pyridin-2-yl)-6-(trifluoromethyl)picolinamide] | 3 to 10
14 | Cc1ccc2ccc(C(=O)Nc3cccc(C(C)Sc4nncn4C)c3)nc2n1 (centres unmarked) [Compound 21, 7-Methyl-N-(3-(1-((4-methyl-4H-1,2,4-triazol-3-yl)thio)ethyl)phenyl)-1,8-naphthyridine-2-carboxamide] | > 10
15 | CC(Sc1nncn1C)c1cccc(NC(=O)c2cc3ccc(Cl)cc3cn2)c1 (centres unmarked) [Compound 25, 7-Chloro-N-(3-(1-((4-methyl-4H-1,2,4-triazol-3-yl)thio)ethyl)phenyl)isoquinoline-3-carboxamide] | 1 to 3
16 | CC(C)c1ccnc(C(=O)Nc2cccc([C@H](C)Sc3nncn3C)c2)c1 [Compound 37, (S)-4-Isopropyl-N-(3-(1-((4-methyl-4H-1,2,4-triazol-3-yl)thio)ethyl)phenyl)picolinamide] | 3 to 10

Same assay, conditions: assay buffer with 100 mM NaCl, 60 nM Src kinase; read-out: Cbl-b activity IC50

Row | SMILES | IC50 [µM]
17 | C[C@@H](Sc1nncn1C)c1ccc(F)c(N2Cc3c(cccc3C(F)(F)F)C2=O)c1 [Compound 170, 2-[2-Fluoro-5-[(1R)-1-[(4-methyl-1,2,4-triazol-3-yl)sulfanyl]ethyl]phenyl]-4-(trifluoromethyl)isoindolin-1-one] | > 10
18 | C[C@@H](Cc1n[nH]cc1CO)c1cccc(N2Cc3c(cccc3C(F)(F)F)C2=O)c1 [Compound 271a, (S)-2-(3-(1-(4-(hydroxymethyl)-1H-pyrazol-3-yl)propan-2-yl)phenyl)-4-(trifluoromethyl)isoindolin-1-one] | > 10
19 | Cc1conc1C[C@H](C)c1cccc(N2Cc3c(cccc3C(F)(F)F)C2=O)c1 [Compound 367b, (S)-2-(3-(1-(4-methylisoxazol-3-yl)propan-2-yl)phenyl)-4-(trifluoromethyl)isoindolin-1-one] | 1 to 3
20 | C[C@H](Cc1nncn1C)c1cc(NC2(C)COC2)nc(N2Cc3c(cccc3C(F)(F)F)C2=O)c1 [Compound 349, 2-{4-[(2R)-1-(4-methyl-4H-1,2,4-triazol-3-yl)propan-2-yl]-6-[(3-methyloxetan-3-yl)amino]pyridin-2-yl}-4-(trifluoromethyl)-2,3-dihydro-1H-isoindol-1-one] | 0.301 to 1
21 | Cn1cnnc1[C@@H](F)[C@@](C)(F)c1cccc(N2Cc3c(cc(C4CC4)cc3C(F)(F)F)C2=O)c1 [Compound 481b, 6-cyclopropyl-2-[3-[(1R,2S)-1,2-difluoro-1-(4-methyl-4H-1,2,4-triazol-3-yl)propan-2-yl]phenyl]-4-(trifluoromethyl)-2,3-dihydro-1H-isoindol-1-one] | 1 to 3
22 | Cc1[nH]cnc1C[C@@H](C)c1cccc(N2Cc3c(cccc3C(F)(F)F)C2=O)c1 [Compound 272a, 2-[3-[(2R)-1-(5-methyl-1H-imidazol-4-yl)propan-2-yl]phenyl]-4-(trifluoromethyl)isoindolin-1-one] | 0.1 to 0.3
23 | Cc1cnnn1C[C@H](C)c1cccc(NC(=O)c2cccc(C(F)(F)F)n2)c1 [Compound 312b, (R)-N-(3-(1-(5-methyl-1H-1,2,3-triazol-1-yl)propan-2-yl)phenyl)-6-(trifluoromethyl)picolinamide] | 1 to 3
24 | Cn1cnnc1C(F)[C@@](C)(F)c1cccc(N2Cc3c(cccc3C(F)(F)F)C2=O)c1 (stereo in doubt) [Compound 478b, 2-(3-((1R,2S)-1,2-difluoro-1-(4-methyl-4H-1,2,4-triazol-3-yl)propan-2-yl)phenyl)-4-(trifluoromethyl)isoindolin-1-one] | 1 to 3
25 | Cn1cnnc1C[C@@H](c1cccc(N2Cc3c(cccc3C(F)(F)F)C2=O)c1)C(F)(F)F [Compound 471b, (S)-2-(3-(1,1,1-trifluoro-3-(4-methyl-4H-1,2,4-triazol-3-yl)propan-2-yl)phenyl)-4-(trifluoromethyl)isoindolin-1-one] | 3 to 10
26 | C[C@H](Cc1nncn1C)c1cccc(N2Cc3c(ccnc3C(C)(C)F)C2=O)c1 [Compound 373, 4-(2-fluoropropan-2-yl)-2-[3-[(2R)-1-(4-methyl-4H-1,2,4-triazol-3-yl)propan-2-yl]phenyl]-1H,2H,3H-pyrrolo[3,4-c]pyridin-1-one] | 0.301 to 1
